Source: patent publication US9133435B2, “Method for induction/differentiation into photoreceptor cell” (RIKEN, priority 2007, dated 2015)

Test system: mouse ES cells
Experiment: Induction of differentiation of mouse ES cells into neural cells (βII tubulin-positive cells)
Format: cell-based
Conditions: SB-431542 0.1 to 10 μM or CKI-7 1 to 100 μM, single agent
Description: Mouse ES cells were cultured in the presence of SB-431542 (0.1 to 10 μM) and/or CKI-7 (1 to 100 μM) under SFEB conditions. Five days after the start of the culture, the cells were recovered and re-suspended in a fresh differentiation medium, and, to produce re-aggregated pellets, the suspension was centrifuged at 800 g for 10 minutes. After cultivation at 37° C. for 1 hour, three to five re-aggregated pellets per cm^2 were replated onto poly-D-lysine/laminin/fibronectin-coated culture slides, along with differentiation medium. After cultivation for 5 days, the cells were fixed and stained with anti-βII tubulin antibody, and the ratio of βII tubulin-positive cells was determined under microscopy. The other experimental conditions were the same as those for Example 1.

Compound	number of βII tubulin-positive cells
NCCNS(=O)(=O)c1ccc(Cl)c2ccncc12 [CKI-7, N-(2-aminoethyl)-5-chloro-isoquinoline-8-sulfonamide]	increased
NC(=O)c1ccc(-c2nc(-c3ccc4c(c3)OCO4)c(-c3ccccn3)[nH]2)cc1 [SB-431542]	increased
